Reference: patent US20230090683A1, “ASPACYTARABINE PHARMACEUTICAL COMPOSITIONS AND USES THEREOF” (Biosight Ltd., priority 2020, published 2023)
Converted amounts (≈) assume the structure as drawn. Where two headings read alike, the source gives them in different places.

How the values were obtained:
Assay type in all cases: physicochemical
[1] = Solubility and stability of aspacytarabine hydrochloride salt in 3% aqueous solutions of stabilizers/solubilizers after 24 hours (Table 2)
Method: In another study, aspacytarabine hydrochloride salt was added to 3% aqueous solution of different stabilizers/solubilizers (See Table 2) at pH˜5.

[2] = Solubility of aspacytarabine in different solubilizers/stabilizers (Table 1, FIG. 1); conditions: thermodynamic from solid, read-out: Conc (solubility of aspacytarabine); for solubility at 24 h: after 24 hours, room temperature
Method: FIG. 1 depicts solubility (mg/ml) of aspacytarabine with (i) Tween 20, 1% (non-linear polymer); (ii) PEG 400 (neat); (iii) an aqueous solution including 1% w/w poloxamer; (iv) an aqueous solution including 2% w/w poloxamer; and (v) an aqueous solution including 1% w/w poloxamer and 5% w/w PVP, where “P188” is poloxamer 188 and “PVP” is polyvinylpyrrolidone. The solubility was measured after 24 hours in room temperature at pH 4.5.
Aspacytarabine or its hydrochloride salt was stirred with various ingredients in various conditions (separate experiment for each component/condition) in order to prepare compositions thereof. […] Among components tested were organic solvents (e.g. glycerol, ethanol, polyethylene glycol (PEG, e.g. PEG 400), dimethylacetamide and propylene glycol) and polymers (e.g. Polyoxyethylated 12-hydroxystearic acid, Polyethylene glycol, sorbitan monolaurate, polyvinylpyrrolidone (PVP), triblock copolymer of polyethylene/propylene oxide (poloxamer) and cyclodextrin and/or derivatives thereof). […] See comparative results in FIG. 1 and Table 1:
Compositions 1, 2a-2d, 3 as described in Example 2 were dissolved in an aqueous solution at room temperature. Composition 4 is aspacytarabine in neat PEG 400.

[3] = Solubility and stability of aspacytarabine free base and acid salt in aqueous media
Excerpt: Thus, there is an unmet need for a stable and highly concentrated solutions and/or high dosage composition comprising aspacytarabine.

[4] = hydrochloride salt in 3% aqueous PVP 10 kDa + PEG 300, pH~5, room temperature
[5] = hydrochloride salt in 3% aqueous Poloxamer 188 + PEG 300, pH~5, room temperature
[6] = hydrochloride salt in 3% aqueous Poloxamer 188, pH~5, room temperature
[7] = hydrochloride salt, control without stabilizers and/or solubilizer, pH~5, room temperature

N[C@@H](CC(=O)Nc1ccn([C@@H]2O[C@H](CO)[C@@H](O)[C@@H]2O)c(=O)n1)C(=O)O [aspacytarabine, (S)-2-amino-4-((1-((2R,3S,4S,5R)-3,4-dihydroxy-5-(hydroxymethyl)tetrahydrofuran-2-yl)-2-oxo-1,2-dihydropyrimidin-4-yl)amino)-4-oxobutanoic acid]
Concentration after 24 h [1, 4]: 91600 ± 8400 µg/mL | Initial appearance [1, 4]: Clear | Initial concentration [1, 4]: 87.1 ± 0.0 mg/mL | Appearance after 24 h [1, 5]: Clear | Concentration after 24 h [1, 5]: 80600 ± 2200 µg/mL | Initial appearance [1, 5]: Clear | Initial concentration [1, 5]: 87.3 ± 0.4 mg/mL | Appearance after 24 h [1, 6]: Clear | Concentration after 24 h [1, 6]: 81800 ± 3200 µg/mL | Initial appearance [1, 6]: Clear | Initial concentration [1, 6]: 87.3 ± 0.2 mg/mL | Concentration after 24 h [1, 7]: 17200 ± 400 µg/mL | Initial appearance [1, 7]: Clear | Initial concentration [1, 7]: 86.6 ± 1.1 mg/mL | solubility at 24 h ([2]; 1% Tween 20, aqueous with cosolvent or surfactant or cyclodextrin, solubilizer/stabilizer Tween 20 (1%, non-linear polymer), pH 4.5): 14.3 mg/mL (≈ 40 mM) | solubility ([2]; Kolliphor ELP as solubilizer/stabilizer, aqueous with cosolvent or surfactant or cyclodextrin, solubilizer/stabilizer Kolliphor ELP): 17.8 mg/mL (≈ 49.7 mM) | solubility ([2]; Solutol HS15 as solubilizer/stabilizer, aqueous with cosolvent or surfactant or cyclodextrin, solubilizer/stabilizer Solutol HS15): 16.1 mg/mL (≈ 45.1 mM) | solubility at 24 h ([2]; aqueous solution with 1% w/w poloxamer 188, aqueous with cosolvent or surfactant or cyclodextrin, solubilizer/stabilizer Poloxamer 1% w/w aqueous solution, pH 4.5): 95.3 mg/mL (≈ 266 mM) | solubility at 24 h ([2]; aqueous solution with 1% w/w poloxamer 188 and 5% w/w PVP, aqueous with cosolvent or surfactant or cyclodextrin, solubilizer/stabilizer Poloxamer 1% + 5% PVP aqueous solution, pH 4.5): 90.9 mg/mL | solubility at 24 h ([2]; aqueous solution with 2% w/w poloxamer 188, aqueous with cosolvent or surfactant or cyclodextrin, solubilizer/stabilizer Poloxamer 2% w/w aqueous solution, pH 4.5): 94.9 mg/mL (≈ 265 mM) | solubility at 24 h ([2]; neat PEG 400, pH 4.5, organic solvent or mixture, solubilizer/stabilizer PEG400 (neat)): 50.5 mg/mL (≈ 141 mM) | solubility in aqueous media [3]: low solubility
